For experiment [1], the system named is AQP7 mRNA. Kind of experiment: AQP7 mRNA expression in neonatal rat cardiomyocytes by qPCR. Format: cell-based. Conditions: for AQP7 mRNA expression: fasted serum (2%) plus individual fatty acid (C14: 10, 33, 100 μM; C16: 33, 100, 300 μM; C16:1: 3, 10, 33 μM), 48 hours. The procedure: Individual fatty acids were complexed to BSA as described by de Vries et al. (1997), which is hereby incorporated by reference. […] An equal volume of Na2CO3 (10 mM) was added and the ethanol was evaporated at 60° C. under continuous N2 flow. The fatty acid mix was added dropwise to 10% BSA. BSA/fatty acid complexes were then dialyzed four times at 4° C. during 4-6 hours in NH4HCO3 (0.1 M). Complexes were then frozen, lyophilized overnight, and resuspended in NRVM rinse media (MEM/PB12/Hepes) for a final concentration of 7 mM. NRVMs were treated with fasted serum, 1 day post-fed serum, or fasted serum+individual fatty acids. […] NRVM gene expression and mean cell diameter were determined after either 24 or 48 hours, respectively.
Dose-dependent effects of individual fatty acids on AQP7 expression. […] Fasted serum (2% final) and fatty acids were diluted in serum-free media (MEM/Hepes/PB12) containing insulin, trnsferrin, BSA, and BrdU. Cells were treated for 48 hours and AQP7 mRNA expression was determined using qPCR with 18S as the normalizing gene.
siRNA studies. Rat AQP7 mRNA sequence was analyzed for potential small interfering RNA (siRNA) target regions using a sequence identification tool (Ambion, Inc., Austin, Tex.). Potential target sequences were transcribed from oligonucleotide templates using the Silencer siRNA Construction kit (Ambion, Inc., Austin, Tex.). To test for the ability of siRNAs to effectively reduce AQP7 expression, NRVMs were transfected with siRNA (100 nM) using Lipofectamine Plus reagent as specified by the manufacturer (Invitrogen, Carlsbad, Calif.). Several rat AQP7-specific siRNA sequences (#1: 5′-[…]-3′ (SEQ ID NO:22); #2: […]-3′ (SEQ ID NO:23); #3 5′-[…]-3′ (SEQ ID NO:24)) were tested for efficacy of gene knockdown using qPCR. […] A nonspecific siRNA (Silencer Negative Control #2; Ambion, Inc., Austin, Tex.) was used as a negative control.
A general note: Real-time PCR tracks product formation cycle by cycle.

The subject of experiment [2] is neonatal rat ventricular myocytes (NRVMs). Description: NRVM cell size / hypertrophy (a-actinin staining, Coulter Counter). Format: cell-based. The procedure: Primary culture cardiomyocytes prepared from neonatal rats were treated with fasted and post-fed serum samples. Twenty four hours later the cells were removed from the culturing dish and analyzed for changes in cell size by immunostaining or by automatic analyzer such as Coulter Counter.
In other experiments, neonatal rat cardiac myocytes (NRVMs) were prepared according to the method described in Waspe et al. (1990). In brief, cells were obtained from the hearts of Sprague-Dawley rat pups (1-2 days old) by trypsinization and plated in MEM medium (Hanks' salts) with 5% calf serum. After 48 h in culture, cells were transferred to serum-free medium supplemented with transferring and insulin (each 10 μg/ml). Cells were maintained in 60- or 35-mm culture dishes at a density of 200,000 cells/ml. Contaminating non-muscle cells were kept at <10% by pre-plating and addition of 0.1 mM bromodeoxyuridine to the medium though day 3 of culture.
Before treating the cells, serum samples were thawed and heat inactivated at 58° C. for 30 min. […]
Cardiomyocytes grown on gelatin-coated coverslips were infected with Ad Aqp7 for 48 h. […] Images were captured at a 40x magnification with a fluorescence microscope (Nikon E800) equipped with a digital camera (AxioCam) and Axiovision, version 3.0.6.36 imaging software (Carl Zeiss, Thornwood, NY). The surface areas were measured using NIH image software (Image J) and at least 100 individualized cells were analyzed per each experiment. Cell size was also determined by particle size analyzer, Coulter Counter Multisizer 3 ([…]).
Inhibition of fatty acid transport blocks serum-induced NRVM hypertrophy. […] NRVMs were treated with serum (2%) in the presence and absence of SSO (400 μM) for 48 hours and cell size was determined using a Coulter Counter.
Individual fatty acids were complexed to BSA as described by de Vries et al. (1997), which is hereby incorporated by reference. […] NRVM gene expression and mean cell diameter were determined after either 24 or 48 hours, respectively. […]

Experiment [3] concerns fetal gene program (β-myosin heavy chain, ANF, BNP, skeletal actin, SERCA). Description: Pathologic fetal gene expression in NRVMs by qPCR. Format: cell-based, rat. Conditions: 48 hours. How it is done: FIG. 4. […] Neonatal rat cardiomyocytes were untreated (lightest gray bars) or treated with fasted serum (light gray bars), post-fed serum (black bars) and Phenylephrin (PE; dark gray bars). After 48 hours, RNA was isolated and cDNA was obtained by standard procedures. The expression of several pathologic hypertrophic markers was measured by quantitative real-time PCR including β-myosin heavy chain, atrial natriuretic factor (ANF), brain natriuretic peptide (BNP), skeletal actin and sarcoplasmic reticulum calcium ATPase (SERCA).
Total RNA was extracted by TRizol (Invitrogen). 0.5 μg of RNA was reverse transcribed into cDNA using the SuperScript III first-strand cDNA synthesis kit (Invitrogen). Typically, 0.1 ng of cDNA, 12.5 nM of each primer, and Power SYBER Green PCR Master Mix (Applied Biosystems, Foster City, Calif.) were used in the reverse transcription (RT)-PCR reactions. Reactions were performed using the ABI7300 system. The primers used are presented on Table 1.
Total RNA was extracted from mouse or python ventricle and NRVMs using TRI Reagent (Invitrogen). 0.5 to 2.0 μg of RNA was reverse transcribed into cDNA using the SuperScript III first-strand cDNA synthesis kit (Invitrogen). Quantitative real time PCR reactions were performed using the ABI7300 system (Applied Biosystems, Foster City, Calif., USA) and the Power SYBR Green PCR Master Mix (Applied Biosystems). […]

Entries after “also recorded” stand apart in the source; their conditions may differ.

Take `CCCCCC/C=C\CCCCCCCC(=O)O` [C16:1, (z)-9-hexadecenoic acid]: in experiment [1], the “AQP7 mRNA expression” value was “tended to increase AQP7 mRNA expression in a dose-dependent manner”. In the case of `CCCCCCCC/C=C\CCCCCCCC(=O)ON1C(=O)CC(S(=O)(=O)O)C1=O` (centres unmarked) [SSO, sulfo-N-succinimidyl oleate], the “effect on cell growth (hypertrophy) induced by fed serum/plasma” value in experiment [2] (SSO 400 μM, 2% 1DPF fed serum/plasma) is “completely blocks the cell growth induced by the fed-serum; also recorded: completely blocked the pro-hypertrophic effect of fed plasma; also recorded: significantly reduced”. Besides, the “cell size, no serum (control)” value in experiment [2] (presence of SSO, no serum) was “smaller”. `CCCCCCCCCCCCCC(=O)O` [C14, tetradecanoic acid]: the cell size entry in experiment [2] (fasted plasma (2%) supplemented with fatty acids at 1 DPF levels (C14 40 μM; C16 137 μM; C16:1 7.5 μM), 48 hours) is recorded as “significant increase in cell size”. For the same molecule, the “Aqp7 mRNA levels” value in experiment [1] (fasted plasma supplemented with FFAs, relative to 1 DPF plasma) is “comparable levels observed with 1 DPF plasma”. Further, the “AQP7 mRNA expression” value in experiment [1] is reported as “tended to increase AQP7 mRNA expression in a dose-dependent manner”.

As to `CCCCCCCCCCCCCCCC(=O)O` [C16, hexadecanoid acid], in experiment [1], the “AQP7 mRNA expression” value is on record as “tended to increase AQP7 mRNA expression in a dose-dependent manner”. `CNC[C@H](O)c1cccc(O)c1` [phenylephrine]: the “activation of fetal gene program / pathological gene expression” value in experiment [3] is on record as “robust activation of pathological patterns of gene expression”.

(Values after patent US20150045433A1, “METHODS AND COMPOSITIONS FOR INDUCING PHYSIOLOGICAL HYPERTROPHY” (THE REGENTS OF THE UNIVERSITY OF COLORADO, A BODY CORPORATE, priority 2009, published 2015).)
